Source: patent US4543254A, “Antiphlogistic/antipyretic/analgesic agents containing theobromine or theophylline derivatives as active ingredient” (Eisai Co., Ltd., priority 1982, dated 1985)
Like-named read-outs stand apart in the source and are kept apart here.

Tests used:
in vivo = conditions: po, p.o., read-out: Safety margin (LD50/ED50)
Procedure: Ten mice were used for each dose and morality was determined for 3 days after administration of each test compound of the invention. In the case of the rats, 5 rats were used for each dose and morality was determined 7 days after administrations.

[1] = Antipyretic activity: dry yeast-induced fever (rats); assay type: in vivo, SD male rats; conditions: Rattus norvegicus, po, read-out: ED, effective dose for reducing the fever by more than 1° C. when the compound action is at the peak
Procedure: A 2% suspension of dry yeast was injected sub-Cutaneously to SD male rats of 250 to 300 g body weight in an amount of 2 ml/animal to cause a fever, and 4 hours later, the compounds of this invention and control drugs were administered orally. The rectal temerature of each rat was measured periodically, and the dosage of each compound required to reduce the fever by more than 1° C. at the peak of its activity was determined.

[2] = Analgesic activity: bradykinin-induced pain response (rats); assay type: in vivo, SD male rats; conditions: Rattus norvegicus, po, read-out: Analgesic activity ED50
Procedure: (B) Bradykinin-induced pain response^3,4
A polyethylene tube was inserted into a common right carotid artery of SD male rats (250 to 350 g) and 0.5 microngram per 0.1 ml of bradykinin was injected into the artery through said tube. Response induced by bradykinin such as flexin of the right forelimb, dextro-rotation of the head and rearing were considered as being indices of pain response, and the analgesic action of each test compound was determined by observing its inhibition of responses such symptoms.
(3) T. Abe, T. Kaneko and H. Takagi: Japan Pharm. Soc. Bul., 67, 9-14 (1971)
(4) G. F. Blane: J. Pharma. Pharmacol., 19, 367 (1967)

[3] = Analgesic activity: acetic acid writhing method (mice); assay type: in vivo, ddy-strain male mice; conditions: Mus musculus, po
Procedure: (a) Acetic acid writhing method^1
A 0.7% acetic acid solution was injected intraperitoneally to ddy-strain male mice (20 to 25 g) in an amount of 0.1 ml per 10 g mouse body weight to cause a writhing syndrome typified by stretching of the hind legs. The inhibitory action of each test compound against said symptom was observed as a measure of the analgesic activity of the compound.
(1) Hendershot, L. C. and Forsaith, J.: J. Pharmacol. Exp. Ther., 125, 237 (1959).
(2) Litchfield, Jr., J. T. and Wilcoxon, F.: J. Pharmacol. Exp. Ther., 96, 99 (1949).

[4] = Antiphlogistic activity: carrageenin paw edema (rats); assay type: in vivo, Wistar rats; conditions: Rattus norvegicus, po, 3 hours
Procedure: (3) Antiphlogistic activity^5
Each test compound of this invention was administered orally to Wistar rats of about 300 g body weight, and 30 minutes later 0.05 ml of a 1% carrageenin solution was injected into a paw of each rat. After three hours, the paw volume was measured to determine the degree of edema formation and the 30% effective dose (ED30) was calculated from the inhibition rate relative to a control group.
(5) R. Vinegar et al: J. Pharmacol. Exp. Ther., 166, 96 (1969)

SD male rats = conditions: p.o., control drugs, given in Japan National Formulary, 6th Ed. (1982); cited from earlier work
ddy male mice = conditions: p.o., control drugs, given in Japan National Formulary, 6th Ed. (1982); cited from earlier work
[5] = rats, p.o., bradykinin-induced pain

| SMILES | selectivity ratio (in vivo; mouse, mice) | selectivity ratio (in vivo; rat, rats) | minimal effective dose [1] [mg/kg] | ED50 [2, 5] [mg/kg] | ED50 [3] [mg/kg] | ED30 [4] [mg/kg] | ED50 [2] [mg/kg] | Acute toxicity LD50 (SD male rats) | Acute toxicity LD50 (ddy male mice) [mg/kg] |
| --- | --- | --- | --- | --- | --- | --- | --- | --- | --- |
| Cc1ccc(N2CCN(CCCn3cnc4c3c(=O)n(C)c(=O)n4C)CC2)cc1C [Compound C] | > 60 | 13.6 | 10 | 57 | 13.3 | – | – | – | – |
| Cn1cnc2c1c(=O)n(CCCCN1CCN(c3ccc(Cl)c(Cl)c3)CC1)c(=O)n2C [Compound F', 1-(4-(4-(3,4-dichlorophenyl)piperazinyl-(1))-n-butyl)theobromine.2HCl] | 51 to 103 | – | – | – | 7.8 | – | – | – | – |
| COc1ccccc1N1CCN(CCCCn2c(=O)c3c(ncn3C)n(C)c2=O)CC1 [Compound D', 1-(4-(4-o-methoxyphenylpiperazinyl-(1))-n-butyl)theobromine.2HCl] | 130 to 258 | – | – | – | 3.1 | – | – | – | – |
| Cn1c(=O)c2c(ncn2CCCCCN2CCN(c3cccc(C(F)(F)F)c3)CC2)n(C)c1=O [Compound F] | ≥ 30 | 10.5 | 10 | 63 | 27.1 | 25 | – | – | – |
| Cn1cnc2c1c(=O)n(CCCN1CCN(c3ccc(Cl)c(Cl)c3)CC1)c(=O)n2C [Compound A', 1-(3-(4-(3,4-dichlorophenyl)piperazinyl-(1))-n-propyl)theobromine] | – | – | 40 | 40 | 7.2 | 25 | – | – | – |
| Cn1c(=O)c2c(ncn2CCCCN2CCN(c3ccc(Cl)cc3)CC2)n(C)c1=O [Compound D] | 22 | 7.6 | 40 | – | 26 | 25 | 68 | – | – |
| Cn1c(=O)c2c(ncn2CCCCN2CCN(c3ccc(F)cc3)CC2)n(C)c1=O [Compound A] | 34 | 7.5 to 10.6 | 10 | 47 | 10 | 10 | – | – | – |
| Cc1cccc(N2CCN(CCCCCn3c(=O)c4c(ncn4C)n(C)c3=O)CC2)c1 [Compound G', 1-(5-(4-m-methylphenylpiperazinyl-(1))-n-pentyl)theobromine.2HCl] | 22 | – | – | – | 13.5 | 25 | – | – | – |
| Cc1cccc(N2CCN(CCn3c(=O)c4c(ncn4C)n(C)c3=O)CC2)c1C [Compound B', 1-(2-(4-(2,3-dimethylphenyl)piperazinyl-(1))-ethyl)theobromine.2HCl] | 230 | ≥ 100 | – | 20 | 2.6 | – | – | – | – |
| O=C(Cn1c(=O)sc2ccc(Cl)cc21)N1CCN(CCO)CC1 [Control drug II, 4-((5-chloro-2-oxo-3(2H)-benzothiazolyl)acetyl)-1-piperazineethanol, reference compound] | 8.5 | ≤ 23 | 40 | ≥ 160 | 66 | – | – | 3,600 mg/kg | 564 |
| COc1cc(C)nc(-n2nc(C)cc2OC)n1 [Control drug I, 4-methoxy-2-(5-methoxy-3-methylpyrazol-1-yl)-6-methylpyrimidine, reference compound] | 4.3 | ≤ 3 | 40 | ≥ 160 | 240 | – | – | 526 mg/kg | – |
| Cn1cnc2c1c(=O)n(CCCCN1CCN(c3ccc(F)cc3)CC1)c(=O)n2C [Compound E', 1-(4-(4-p-fluorophenylpiperazinyl-(1))-n-butyl)theobromie.2HCl] | 26 | – | – | – | 7.8 | 25 | – | – | – |
| Cn1cnc2c1c(=O)n(CCCN1CCN(c3ccccc3Cl)CC1)c(=O)n2C [Compound C', 1-(3-(4-o-chlorophenylpiperazinyl-(1))-n-propyl)theobromine.2HCl] | 61 | – | – | – | 3.3 | 10 | – | – | – |
| Cn1c(=O)c2c(ncn2CCCCCN2CCN(c3ccc(Cl)cc3)CC2)n(C)c1=O [Compound B] | 51 | 8.8 to 12.5 | 40 | 40 | 13.8 | 50 | – | – | – |
| OC(CN1CCCCC1)c1cc(-c2ccccc2)on1 (stereo not shown) [Control drug III, 3-(1-hydroxy-2-piperadinoethyl)-5-phenylisoxazole, reference compound] | 5.1 | 12 | 160 | 160 | 120 | – | – | 1,978 mg/kg | 612 |
